# Results from patent publication US12515027B2, “Subcutaneous biodegradable reservoir device” (Research Triangle Institute, priority 2018, dated 2026).
# Values joined by “and” are separate entries in the source; they are usually repeats but may differ in a detail not shown here. Equal values may be shown once. Where a name gives a salt, the structure may show the parent alone.
# Experiments:
# [1] = Solubility of active agents in excipients (saturated solutions, UPLC/UV)
# Protocol: Over a 24-hour period, the solutions were mixed periodically and returned to the water bath. After approximately 72 hours, the solutions were removed from the water bath and appearance recorded for each of the saturated solutions. […] The supernatants were prepared for analysis by UPLC. Triplicate weighed aliquots were prepared from the collected supernatants and analyzed for assay using a UPLC/UV method. The analysis was performed using a Waters BEH C18 column (2.1 mm×50 mm, 1.7 μm) under gradient, reversed phase conditions with detection at 260 nm. The saturated solutions were quantitated by linear regression analysis against a 5-point calibration curve.
# Testing using the same methodology was performed for EFdA, LNG, and ENG using various excipients.
# [2] = In vitro release from PCL reservoir implants in PBS pH 7.4 at 37 °C (UV-Vis); assay type: physicochemical; details: for release rate of TAF: first 30 days, normalized to 314 mm^2; for release rate of TAF from implant: summary b130; for TAF dosage (daily release rate): release over 35 days, FIG. 24; for Release Rates of TAF, Gamma-Irradiated: 18-24 kGy
# Protocol: The implants were incubated in 1×PBS (pH 7.4) at 37° C. Drug quantity released in media was measured via UV-Vis three times per week during which the implants were transferred to fresh buffer to maintain sink conditions. Drug concentrations were determined by correlating UV absorbance values to a standard curve. Standard curves involved measuring peak absorbance values as a function of drug concentrations diluted by half from bulk solutions. Peak absorbance values were determined by scanning the dilute drug solutions from 230 to 700 nm at a step size of 1 nm and assessing the maximum UV absorbance value.
# Testing was performed to evaluate release kinetics of varying formulations of active agent and excipient. In particular, the release mechanism and release profiles for TAF formulated with varying mass quantities of castor oil from extruded PCL tubes was evaluated. Heat extruded PCL devices were fabricated (2.5 mm×40 mm) using 80 kDa Sigma grade PCL. […] For the in vitro release studies, devices were incubated in 40 mL of phosphate buffered saline (PBS) at pH 7.4 in a shaking incubator at 37° C. The implants were transferred to fresh buffer three times per week to maintain sink conditions.
# Testing was performed to evaluate the in vitro release profile for an exemplary segmented device. In-vitro conditions included a simulated physiological media of a salt solution at pH between 6.5 and 7.5 at a temperature of 37° C. The exemplary device was engineered to release two APIs simultaneously, both at zero-order release kinetics. The device was fabricated with a segmented architecture that contained LNG formulated with ethyl oleate at a 1:4 ratio and EFdA formulated with castor oil at a 1:1 ratio and housed in separate compartments within a single implant design. Different segment lengths, polymer membrane thicknesses and polymer properties were tested.
# In vitro release characterization involved incubation of the implants in 40 mL 1× phosphate buffered saline (PBS) (pH 7.4) at 37° C. and placed on an orbital shaker. […] The release buffer was sampled three times per week during which the devices were transferred to 40 mL of fresh buffer to maintain sink conditions. TAF quantity released in each PBS buffer during the time interval was calculated and cumulative mass of drug release as a function of time was determined.
# [3] = Chromatographic purity (stability) of formulation inside implant after in-vitro exposure (UPLC/UV); assay type: physicochemical; details: after 180 days in simulated physiological conditions
# [4] = subcutaneous implant, up to 90 days
# Protocol: Testing was performed to evaluate the in vivo release profile of an exemplary device.
# [5] = subdermal silicone implant with PVA-coated channels, beagle dogs; cited from earlier work
compound,measurement,setting,value
"CC(C)OC(=O)[C@H](C)N[P@](=O)(CO[C@H](C)Cn1cnc2c(N)ncnc21)Oc1ccccc1 [TAF, Tenofovir Alafenamide Fumarate]",solubility at 72 h,"[1]; 37 °C, oil or lipid, thermodynamic from solid",3900 µg/mL
same,solubility of TAF within four different excipients,"[1]; sesame oil, castor oil, oleic acid, PEG 600, FIG. 8",most soluble in oleic acid and PEG600
same,release rate of TAF,"[2]; 2:1 TAF:castor oil, 45 μm wall",0.91 ± 0.23 mg/day
same,release rate of TAF,"[2]; 2:1 TAF:castor oil, 70 μm wall",0.61 ± 0.09 mg/day
same,release rate of TAF,"[2]; 2:1 TAF:castor oil, 100 μm wall",0.29 ± 0.05 mg/day
same,release rate of TAF,"[2]; 2:1 TAF:castor oil, 150 μm wall",0.19 ± 0.04 mg/day
same,release rate of TAF,"[2]; 2:1 TAF:castor oil, 200 μm wall",0.15 ± 0.03 mg/day
same,initial release rate,[2]; 4:1 TAF-castor oil formulation,0.2 mg/day
same,initial release rate,[2]; 5:1 TAF-castor oil formulation,0.4 mg/day
same,release rate of TAF from implant,[2]; 45 μm PCL wall,approximately 0.8 mg/day
same,TAF dosage (daily release rate),"[2]; 45 μm wall thickness, 2:1 TAF:castor oil",0.78 ± 0.03 mg/day
same,release rate of TAF from implant,[2]; 200 μm PCL wall,~0.2 mg/day
same,TAF dosage (daily release rate),"[2]; 200 μm wall thickness, 2:1 TAF:castor oil",0.13 ± 0.01 mg/day
same,"Release Rates of TAF, Non-Irradiated","[2]; PC-12, 70 μm wall",0.37 ± 0.05 mg/day
same,"Release Rates of TAF, Gamma-Irradiated","[2]; PC-12, 70 μm wall",0.30 ± 0.03 mg/day
same,"Release Rates of TAF, Non-Irradiated","[2]; PC-12, 100 μm wall",0.20 ± 0.03 mg/day
same,"Release Rates of TAF, Gamma-Irradiated","[2]; PC-12, 100 μm wall",0.20 ± 0.02 mg/day
same,"Release Rates of TAF, Non-Irradiated","[2]; Sigma-PCL, 70 μm wall",0.62 ± 0.09 mg/day
same,"Release Rates of TAF, Gamma-Irradiated","[2]; Sigma-PCL, 70 μm wall",0.54 ± 0.06 mg/day
same,"Release Rates of TAF, Non-Irradiated","[2]; Sigma-PCL, 100 μm wall",0.29 ± 0.05 mg/day
same,"Release Rates of TAF, Gamma-Irradiated","[2]; Sigma-PCL, 100 μm wall",0.32 ± 0.03 mg/day
same,Measured release rates for full sized device,"[2]; TAF castor oil devices (1:1, 2:1, 3:1), PCL wall 70 μm, 2.5 mm x 40 mm",0.7 mg/day and 0.7 ± 0.08 mg/day
same,Measured release rates for full sized device,"[2]; TAF castor oil devices, PCL wall 100 μm",0.38 ± 0.04 mg/day
same,Measured release rates for full sized device,"[2]; TAF castor oil devices, PCL wall 200 μm",0.22 ± 0.01 mg/day
same,"J, drug released from the membrane per unit area per unit time","[2]; TAF castor oil, 70 μm, surface area 314 mm^2",0.002 mg/day/mm^2
same,start of depletion,"[2]; TAF:castor oil 1:1, 70 μm, 2.5 mm x 40 mm",76 days
same,start of depletion,"[2]; TAF:castor oil 2:1, 70 μm, 2.5 mm x 40 mm",83 days
same,TAF remaining within the implant,"[2]; after 180 days in vitro, payload approximately 115 mg",approximately 68 mg
same,sustained release rate of TAF,"[2]; over the course of 180 days in vitro, 2:1 TAF:castor oil, 100 μm wall, 2.5 mm OD x 40 mm",0.25 ± 0.03 mg/day
same,duration of zero-order release from segmented implants,[2]; segmented implants of TAF with LNG or ENG,50 days
same,chromatographic purity of TAF remaining in implant,[3],89.2±0.8%
same,reactivity at the site of the implant,[4],minimal reactivity
same,duration of drug delivery,[5],40 days
